What follows are compounds tested on bicistronic HCV replicon (replicon RNA, GenBank Accession No. AJ242654) (assay: HCV Replicon Assay). Details: Hepatitis C virus, 72 h, read-out: Replicon IC50.
Type: cell-based
With `CC(C)(NS(=O)(=O)c1ccc(-c2c(C#N)c3ccc(C4CC4)cc3n2-c2ccccn2)nc1)C(F)(F)F` [compound 584, 6-[3-cyano-6-cyclopropyl-1-(pyridin-2-yl)-1H-indol-2-yl]-N-(1,1,1-trifluoro-2-methylpropan-2-yl)pyridine-3-sulfonamide] the IC50 was 500 to 2000 nM.
Work on `C[C@@H](NS(=O)(=O)c1ccc(-c2c(C#N)c3cc(Cl)ccc3n2C2CCC2)nc1)C(F)(F)F` [compound 316, 6-(5-chloro-3-cyano-1-cyclobutyl-1H-indol-2-yl)-N-[(2R)-1,1,1-trifluoropropan-2-yl]pyridine-3-sulfonamide] yielded an IC50 of less than 500 nM.
`Cc1cc2c(cc1F)c(C#N)c(-c1ccc(S(=O)(=O)N[C@H](C)C(F)(F)F)cn1)n2-c1ncccn1` [compound 695, 6-[3-cyano-5-fluoro-6-methyl-1-(pyrimidin-2-yl)-1H-indol-2-yl]-N-[(2R)-1,1,1-trifluoropropan-2-yl]pyridine-3-sulfonamide] gave an IC50 of less than 500 nM.
With `CCc1cc2c(cc1F)c(C(N)=O)c(-c1ccc(S(=O)(=O)N[C@@H](C)C(F)(F)F)cn1)n2-c1cncc(Cl)c1` [compound 1044, 1-(5-chloropyridin-3-yl)-6-ethyl-5-fluoro-2-(5-{[(2S)-1,1,1-trifluoropropan-2-yl]sulfamoyl}pyridin-2-yl)-1H-indole-3-carboxamide] the IC50 was less than 500 nM.
`C[C@H](C1CC1)n1c(-c2ccc(NS(=O)(=O)C(C)(C)C)nc2)c(C(=O)O)c2cc(F)c(OC(F)F)cc21` [compound 1084, 2-{6-[(tert-butylsulfonyl)amino]pyridin-3-yl}-1-[(1R)-1-cyclopropylethyl]-6-(difluoromethoxy)-5-fluoro-1H-indole-3-carboxylic acid] showed an IC50 of less than 500 nM.
`C=CCc1cc2c(cc1F)c(C#N)c(-c1ccc(S(=O)(=O)N[C@@H](C)C(F)(F)F)cn1)n2-c1ncccn1` [compound 967, 6-[3-cyano-5-fluoro-6-(prop-2-en-1-yl)-1-(pyrimidin-2-yl)-1H-indol-2-yl]-N-[(2S)-1,1,1-trifluoropropan-2-yl]pyridine-3-sulfonamide] gave an IC50 of less than 500 nM.
With `C[C@H](NS(=O)(=O)c1ccc(-c2c(C(N)=O)c3cc(F)ccc3n2-c2ccccn2)nc1)C(F)(F)F` [compound 748, 5-fluoro-1-(pyridin-2-yl)-2-(5-{[(2S)-1,1,1-trifluoropropan-2-yl]sulfamoyl}pyridin-2-yl)-1H-indole-3-carboxamide] the IC50 was less than 500 nM.
`[2H][C@@](C)(NS(=O)(=O)c1ccc(-c2c(C#N)c3cc(F)c(CC)cc3n2-c2ncccn2)nc1)C(F)(F)F` [compound 956, 6-[3-cyano-6-ethyl-5-fluoro-1-(pyrimidin-2-yl)-1H-indol-2-yl]-N-[(2S)-1,1,1-trifluoro(2-deuterium)propan-2-yl]pyridine-3-sulfonamide] showed an IC50 of less than 500 nM.
Work on `C=CCc1cc2c(cc1F)c(Cl)c(-c1ccc(S(=O)(=O)N[C@@H](C)C(F)(F)F)cn1)n2-c1ncccn1` [compound 968, 6-[3-chloro-5-fluoro-6-(prop-2-en-1-yl)-1-(pyrimidin-2-yl)-1H-indol-2-yl]-N-[(2S)-1,1,1-trifluoropropan-2-yl]pyridine-3-sulfonamide] yielded an IC50 of 500 to 2000 nM.
In the case of `C[C@H](NS(=O)(=O)c1cnc(-c2c(C#N)c3ccc(F)cc3n2C2CCCC2)nc1)C1CC1` [compound 497, 2-(3-cyano-1-cyclopentyl-6-fluoro-1H-indol-2-yl)-N-[(1S)-1-cyclopropylethyl]pyrimidine-5-sulfonamide], the IC50 is reported as less than 500 nM.
Work on `Cc1cc2c(cc1F)cc(-c1ccc(S(=O)(=O)N[C@@H](C)C(F)(F)F)cn1)n2-c1ccsc1` [compound 987, 6-[5-fluoro-6-methyl-1-(thiophen-3-yl)-1H-indol-2-yl]-N-[(2S)-1,1,1-trifluoropropan-2-yl]pyridine-3-sulfonamide] yielded an IC50 of less than 500 nM.
`CC(C)NS(=O)(=O)c1ccc(-c2c(C#N)c3ccc(OC(F)(F)F)cc3n2C2CCCC2)nc1` [compound 17, 6-[3-cyano-1-cyclopentyl-6-(trifluoromethoxy)-1H-indol-2-yl]-N-(propan-2-yl)pyridine-3-sulfonamide] showed an IC50 of 500 to 2000 nM.
In the case of `C[C@H](NS(=O)(=O)c1ccc(-c2c(C#N)c3cc(F)c(OC(F)F)cc3n2-c2ncccn2)nc1)C(F)(F)F` [compound 682, 6-[3-cyano-6-(difluoromethoxy)-5-fluoro-1-(pyrimidin-2-yl)-1H-indol-2-yl]-N-[(2S)-1,1,1-trifluoropropan-2-yl]pyridine-3-sulfonamide], the IC50 is reported as less than 500 nM.
`Cc1cc2c(cc1O)c(C#N)c(-c1ccc(S(=O)(=O)N[C@H](C)C(F)(F)F)cn1)n2C1CCCC1` [compound 693, 6-(3-cyano-1-cyclopentyl-5-hydroxy-6-methyl-1H-indol-2-yl)-N-[(2R)-1,1,1-trifluoropropan-2-yl]pyridine-3-sulfonamide] was tested, and the IC50 was less than 500 nM.
With `N#Cc1c(-c2ccc(S(=O)(=O)NC3(C(F)(F)F)CC3)cn2)n(C2CCC2)c2cc(O)c(F)cc12` [compound 813, 6-(3-cyano-1-cyclobutyl-5-fluoro-6-hydroxy-1H-indol-2-yl)-N-[1-(trifluoromethyl)cyclopropyl]pyridine-3-sulfonamide] the IC50 was 500 to 2000 nM.
`CC(C)(C)N(C(F)F)S(=O)(=O)c1ccc(-c2c(C#N)c3cc(F)c(OC(F)F)cc3n2C2CCC2)nc1` [compound 721, N-tert-butyl-6-[3-cyano-1-cyclobutyl-6-(difluoromethoxy)-5-fluoro-1H-indol-2-yl]-N-(difluoromethyl)pyridine-3-sulfonamide] gave an IC50 of 500 to 2000 nM.
In the case of `Cc1cc2c(cc1F)c(C#N)c(-c1ccc(S(=O)(=O)NC3(C(F)(F)F)CC3)cn1)n2C1CCCCC1` [compound 856, 6-(3-cyano-1-cyclohexyl-5-fluoro-6-methyl-1H-indol-2-yl)-N-[1-(trifluoromethyl)cyclopropyl]pyridine-3-sulfonamide], the IC50 is reported as less than 500 nM.
With `CSc1ccc2c(C#N)c(-c3ccc(S(=O)(=O)NC(CF)CF)cn3)n(C3CCC3)c2c1` [compound 161, 6-[3-cyano-1-cyclobutyl-6-(methylsulfanyl)-1H-indol-2-yl]-N-(1,3-difluoropropan-2-yl)pyridine-3-sulfonamide] the IC50 was less than 500 nM.
With `COC(=O)c1c(-c2ccc(S(=O)(=O)N[C@@H](C)C(F)(F)F)cn2)n(C2CCCC2)c2cc(C)c(F)cc12` [compound 756, (S)-methyl 1-cyclopentyl-5-fluoro-6-methyl-2-(5-(N-(1,1,1-trifluoropropan-2-yl)sulfamoyl)pyridin-2-yl)-1H-indole-3-carboxylate] the IC50 was less than 500 nM.
Compound `[2H]C([2H])(C)c1cc2c(cc1F)c(C#N)c(-c1ccc(S(=O)(=O)N[C@@]([2H])(C)C(F)(F)F)cn1)n2-c1ncccn1` [compound 1079, 6-{3-cyano-6-[(1,1-dideuterium)ethyl]-5-fluoro-1-(pyrimidin-2-yl)-1H-indol-2-yl}-N-[(2S)-1,1,1-trifluoro(2-deuterium)propan-2-yl]pyridine-3-sulfonamide] has an IC50 of less than 500 nM.
Work on `[2H]C(C)(C)NS(=O)(=O)c1ccc(-c2c(C#N)c3cc(F)c(C([2H])([2H])[2H])cc3n2CC2CC2)nc1` [compound 1119, 6-[3-cyano-1-(cyclopropylmethyl)-5-fluoro-6-(1,1,1-trideuterium)methyl-1H-indol-2-yl]-N-[(2-deuterium)propan-2-yl]pyridine-3-sulfonamide] yielded an IC50 of less than 500 nM.
`COC(=O)c1c(-c2ccc(S(=O)(=O)NC(C)(C)C)cn2)n(C2CCCC2)c2cc(C)c(F)cc12` [compound 755, methyl 2-[5-(tert-butylsulfamoyl)pyridin-2-yl]-1-cyclopentyl-5-fluoro-6-methyl-1H-indole-3-carboxylate] gave an IC50 of less than 500 nM.

Reference: US8735414B2 (priority 2009, dated 2014)
